Measured values: US20080058208A1, “5,6-Cycloalkyl-7-Aminotriazolopyrimidines, their Preparation and their Use for Controlling Harmful Fungi, and Compositions Comprising these Compounds” (BASF Aktiengesellschaft, priority 2004, published 2008)

Tests used:
Phytophthora infestans = type: cell-based; settings: 125 ppm; sporangia suspension; 18° C.; absorption at 405 nm on seventh day after inoculation
Pythium species = experiment: Activity against Pythium species in the microtiter test; type: cell-based; settings: 125 ppm; zoospore suspension; 18° C.; absorption at 405 nm on seventh day after inoculation

Nc1c2c(nc3ncnn13)CCCC2 [I-2, 5,6,7,8-tetrahydro-[1,2,4]triazolo[5,1-b]quinazolin-9-ylamine]
relative growth of the pathogens, % of that of the untreated control (Phytophthora infestans): 6%
relative growth of the pathogens, % of that of the untreated control (Pythium species): 7%
